According to article PMC4586081 (Journal of neuroscience research, 2008):

How the values were obtained:
α3β2 nAChR = α3β2 nAChR (Rattus norvegicus, UniProt P04757+P12390); assay: two-electrode voltage clamp, Xenopus oocytes, peak current; format: cell-based
α3β4 nAChR = α3β4 nAChR (Rattus norvegicus, UniProt P04757+P12392); assay: as above; format: cell-based
α3β4 nAChR, sequence (P04757 26-499): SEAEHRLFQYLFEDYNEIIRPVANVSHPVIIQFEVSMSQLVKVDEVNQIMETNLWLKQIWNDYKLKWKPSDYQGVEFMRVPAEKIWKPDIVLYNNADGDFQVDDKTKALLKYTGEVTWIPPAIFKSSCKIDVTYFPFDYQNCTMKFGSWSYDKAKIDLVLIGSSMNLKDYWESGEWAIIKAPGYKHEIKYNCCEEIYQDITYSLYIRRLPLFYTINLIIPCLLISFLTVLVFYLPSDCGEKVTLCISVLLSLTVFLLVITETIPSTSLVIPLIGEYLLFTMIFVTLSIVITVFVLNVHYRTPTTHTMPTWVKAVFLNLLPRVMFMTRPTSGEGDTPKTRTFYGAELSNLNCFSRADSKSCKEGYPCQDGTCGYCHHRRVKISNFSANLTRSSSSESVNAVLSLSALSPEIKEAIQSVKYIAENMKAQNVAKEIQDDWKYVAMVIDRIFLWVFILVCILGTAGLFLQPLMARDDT
α3β4 nAChR, sequence (P12392 21-495): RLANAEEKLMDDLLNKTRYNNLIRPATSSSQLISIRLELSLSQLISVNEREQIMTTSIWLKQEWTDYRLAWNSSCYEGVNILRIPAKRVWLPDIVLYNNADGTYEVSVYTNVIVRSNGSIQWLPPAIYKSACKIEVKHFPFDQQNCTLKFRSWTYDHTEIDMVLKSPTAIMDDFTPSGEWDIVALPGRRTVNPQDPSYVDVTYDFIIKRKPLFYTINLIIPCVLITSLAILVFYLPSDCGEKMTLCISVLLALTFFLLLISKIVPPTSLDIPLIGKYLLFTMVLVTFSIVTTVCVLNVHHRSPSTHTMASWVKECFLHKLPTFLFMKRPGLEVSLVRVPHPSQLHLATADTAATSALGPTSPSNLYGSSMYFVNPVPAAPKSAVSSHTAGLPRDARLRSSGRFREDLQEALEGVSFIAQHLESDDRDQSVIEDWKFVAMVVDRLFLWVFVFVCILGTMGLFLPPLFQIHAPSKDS

α3β2 nAChR, sequence (P04757 26-499): as the sequence (P04757 26-499) above
α3β2 nAChR, sequence (P12390 25-500): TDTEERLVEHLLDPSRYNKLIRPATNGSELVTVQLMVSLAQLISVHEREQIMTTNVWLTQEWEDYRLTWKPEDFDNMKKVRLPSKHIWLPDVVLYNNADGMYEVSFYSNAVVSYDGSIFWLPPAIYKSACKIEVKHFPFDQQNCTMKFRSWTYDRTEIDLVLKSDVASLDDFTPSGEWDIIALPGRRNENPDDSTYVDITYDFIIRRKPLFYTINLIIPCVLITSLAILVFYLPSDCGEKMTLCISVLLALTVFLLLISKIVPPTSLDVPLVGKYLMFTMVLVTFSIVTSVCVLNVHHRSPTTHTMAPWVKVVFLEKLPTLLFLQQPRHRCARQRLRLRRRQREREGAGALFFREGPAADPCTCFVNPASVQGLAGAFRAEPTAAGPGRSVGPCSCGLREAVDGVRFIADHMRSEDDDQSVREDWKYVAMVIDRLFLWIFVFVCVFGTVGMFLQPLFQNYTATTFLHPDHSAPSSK

C[N+]1(C)CCN(c2ccccc2)CC1 [DMPP]
EC50 (α3β2 nAChR): 55 µM
EC50 (α3β4 nAChR): 58 µM
